Laboratory results reported in PubChem BioAssay AID248 (DTP/NCI, 2004).
“And” between values parts separate entries of the source, which are not always exact repeats. Equal values may be shown once. Toxic doses and inconclusive results are not listed. Rule as the data show it: active = T/C of 150% or more; inactive = T/C below 125%.

Test system: L1210 leukemia ip in BDF1 mice, survival T/C
Assay: NCI In Vivo Anticancer Drug Screen. Data for tumor model L1210 Leukemia (intraperitoneal) in B6D2F1 (BDF1) mice
Conditions: endpoint: mean survival time, higher = longer survival
Method in brief: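 Tumor was transplanted into mice, which were then dosed with test compound or vehicle alone. Survival was recorded for each group, and the treated figure was expressed relative to the control figure.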

[1] = dose: 100.0 mg/kg/injection, schedule: Q04DX003 (ip), vehicle: acetone
[2] = dose: 200.0 mg/kg/injection, schedule: Q04DX003 (ip), vehicle: acetone
[3] = dose: 100.0 mg/kg/injection, schedule: Q01DX009 (ip), vehicle: Klucel (hydroxypropylcellulose) (HPC)
[4] = dose: 100.0 mg/kg/injection, schedule: Q04DX003 (ip), vehicle: Klucel (hydroxypropylcellulose) (HPC)
[5] = dose: 200.0 mg/kg/injection, schedule: Q01DX009 (ip), vehicle: Klucel (hydroxypropylcellulose) (HPC)
[6] = dose: 200.0 mg/kg/injection, schedule: Q04DX003 (ip), vehicle: Klucel (hydroxypropylcellulose) (HPC)
[7] = dose: 400.0 mg/kg/injection, schedule: Q01DX009 (ip), vehicle: Klucel (hydroxypropylcellulose) (HPC)
[8] = dose: 400.0 mg/kg/injection, schedule: Q04DX003 (ip), vehicle: Klucel (hydroxypropylcellulose) (HPC)
[9] = dose: 100.0 mg/kg/injection, schedule: Q01DX001 (ip), vehicle: saline
[10] = dose: 100.0 mg/kg/injection, schedule: Q04DX002 (ip), vehicle: saline
[11] = dose: 200.0 mg/kg/injection, schedule: Q01DX001 (ip), vehicle: saline
[12] = dose: 400.0 mg/kg/injection, schedule: Q01DX001 (ip), vehicle: saline
[13] = dose: 100.0 mg/kg/injection, schedule: Q04DX002 (ip), vehicle: Klucel (hydroxypropylcellulose) (HPC)
[14] = dose: 200.0 mg/kg/injection, schedule: Q04DX002 (ip), vehicle: Klucel (hydroxypropylcellulose) (HPC)
[15] = dose: 400.0 mg/kg/injection, schedule: Q04DX002 (ip), vehicle: Klucel (hydroxypropylcellulose) (HPC)
[16] = dose: 100.0 mg/kg/injection, schedule: Q01DX009 (ip), vehicle: saline
[17] = dose: 200.0 mg/kg/injection, schedule: Q01DX009 (ip), vehicle: saline
[18] = dose: 100.0 mg/kg/injection, schedule: Q01DX001 (ip), vehicle: Klucel (hydroxypropylcellulose) (HPC)
[19] = dose: 200.0 mg/kg/injection, schedule: Q01DX001 (ip), vehicle: Klucel (hydroxypropylcellulose) (HPC)
[20] = dose: 400.0 mg/kg/injection, schedule: Q01DX001 (ip), vehicle: Klucel (hydroxypropylcellulose) (HPC)

Measured: T/C

c1ccc2c(c1)ccc1c[s+]ccc12
inactive: [1] 103 % of control | [2] 103 % of control

CSc1nc(-c2cccs2)cc(C(F)(F)F)n1
inactive: dose: 100.0 mg/kg/injection, schedule: Q04DX003 (ip), vehicle: gum acacia 97 % of control | dose: 200.0 mg/kg/injection, schedule: Q04DX003 (ip), vehicle: gum acacia 100 % of control | dose: 400.0 mg/kg/injection, schedule: Q04DX003 (ip), vehicle: gum acacia 102 % of control

CCc1ccccc1NC(=O)Nc1ccccc1C
inactive: [3] 87 % of control | [4] 88 % of control | [5] 93 % of control | [6] 89 % of control | [7] 87 % of control | [8] 93 % of control

CC(C)(N)CO
inactive: dose: 50.0 mg/kg/injection, schedule: Q01DX001 (ip), vehicle: saline 104 % of control | [9] 101 % of control | [10] 100 % of control | dose: 100.0 mg/kg/injection, schedule: Q04DX003 (ip), vehicle: saline 106 % of control | [11] 104 % of control | dose: 200.0 mg/kg/injection, schedule: Q04DX002 (ip), vehicle: saline 110 % of control | dose: 200.0 mg/kg/injection, schedule: Q04DX003 (ip), vehicle: saline 106 % of control | [12] 101 % of control | dose: 400.0 mg/kg/injection, schedule: Q04DX002 (ip), vehicle: saline 100 % of control | dose: 400.0 mg/kg/injection, schedule: Q04DX003 (ip), vehicle: saline 105 % of control

CCCCNc1nc(N)nc(Nc2ccc(Br)cc2)c1N=O
inactive: dose: 100.0 mg/kg/injection, schedule: Q01DX001 (ip), vehicle: acetone 103 % of control | [1] 93 % of control | dose: 200.0 mg/kg/injection, schedule: Q01DX001 (ip), vehicle: acetone 100 % of control | [2] 94 % of control | dose: 400.0 mg/kg/injection, schedule: Q01DX001 (ip), vehicle: acetone 106 % of control | dose: 400.0 mg/kg/injection, schedule: Q04DX003 (ip), vehicle: acetone 100 % of control

CN(C)C(=C1C=CC=C1)N(C)C
inactive: dose: 20.0 mg/kg/injection, schedule: Q04DX003 (ip), vehicle: saline 101 % of control | dose: 40.0 mg/kg/injection, schedule: Q04DX003 (ip), vehicle: saline 96 % of control | dose: 80.0 mg/kg/injection, schedule: Q04DX003 (ip), vehicle: saline 92 % of control

c1ccc2c(CCCCc3nccc4ccccc34)nccc2c1
inactive: [13] 102 % of control | [14] 97 % of control | [15] 89 % of control

NC(=O)CCSCCC(N)=O
inactive: [16] 114 % of control | [17] 118 % of control | dose: 400.0 mg/kg/injection, schedule: Q01DX009 (ip), vehicle: saline 111 % of control

CCN=C(Nc1cccc(C2=NCCN2)c1)c1ccc(C(=NCC)Nc2cccc(C3=NCCN3)c2)cc1
inactive: dose: 2.0 mg/kg/injection, schedule: Q01DX Z (ip), vehicle: carboxymethylcellulose (CMC) 109 % of control | dose: 4.0 mg/kg/injection, schedule: Q01DX Z (ip), vehicle: carboxymethylcellulose (CMC) 95 % of control | dose: 8.0 mg/kg/injection, schedule: Q01DX Z (ip), vehicle: carboxymethylcellulose (CMC) 103 % of control | dose: 16.0 mg/kg/injection, schedule: Q01DX Z (ip), vehicle: carboxymethylcellulose (CMC) 107 % of control

CCCCCCCCCC(=O)CC
inactive: [3] 104 % of control | [4] 110 % of control | [5] 96 % of control | [6] 97 % of control | [7] 102 % of control | [8] 93 % of control

COC(=O)N1C(c2ccccc2)(c2ccccc2)CS1(=O)=O
inactive: [13] 112 % of control | [14] 104 % of control | [15] 93 % of control

COc1ccccc1/C=C(/C)[N+](=O)[O-]
inactive: dose: 100.0 mg/kg/injection, schedule: Q01DX001 (ip), vehicle: carboxymethylcellulose (CMC) 97 % of control | dose: 200.0 mg/kg/injection, schedule: Q01DX001 (ip), vehicle: carboxymethylcellulose (CMC) 97 % of control | dose: 400.0 mg/kg/injection, schedule: Q01DX001 (ip), vehicle: carboxymethylcellulose (CMC) 100 % of control

CN(C)c1ccc(C=O)c([N+](=O)[O-])c1
inactive: [3] 97 % of control | [5] 101 % of control | [7] 105 % of control

C(CCSC1=NCCN1)CSC1=NCCN1
inactive: [10] 105 % of control

CCOC(=O)c1cn2ccc3ccccc3c2n1
inactive: [18] 103 % of control | [19] 98 % of control | [20] 98 % of control

CN(C)C(=S)Oc1ccc(Cl)cc1S(=O)(=O)F
inactive: [4] 106 % of control | [6] 101 % of control | [8] 102 % of control

NC(N)=N/N=C(\c1ccc(Br)cc1)C1CC1
inactive: dose: 15.0 mg/kg/injection, schedule: Q01DX Z (ip), vehicle: carboxymethylcellulose (CMC) 96 % of control | dose: 30.0 mg/kg/injection, schedule: Q01DX Z (ip), vehicle: carboxymethylcellulose (CMC) 95 % of control | dose: 30.0 mg/kg/injection, schedule: Q01DX Z (oral), vehicle: carboxymethylcellulose (CMC) 100 % of control | dose: 60.0 mg/kg/injection, schedule: Q01DX Z (ip), vehicle: carboxymethylcellulose (CMC) 96 % of control | dose: 60.0 mg/kg/injection, schedule: Q01DX Z (oral), vehicle: carboxymethylcellulose (CMC) 115 % of control | dose: 120.0 mg/kg/injection, schedule: Q01DX Z (oral), vehicle: carboxymethylcellulose (CMC) 107 % of control and 121 % of control | dose: 240.0 mg/kg/injection, schedule: Q01DX Z (oral), vehicle: carboxymethylcellulose (CMC) 102 % of control and 111 % of control

CCCNC(=O)c1ccc(NCc2cnc3nc(N)nc(N)c3n2)cc1
inactive: [18] 92 % of control | [19] 100 % of control | [20] 98 % of control

CC(=O)OC1C(CO)OC2C1OC1=NC(N)=NCN12 (stereo not given)
inactive: dose: 1.56 mg/kg/injection, schedule: Q01DX009 (ip), vehicle: saline 102 % of control and 119 % of control | dose: 3.12 mg/kg/injection, schedule: Q01DX009 (ip), vehicle: saline 102 % of control | dose: 6.25 mg/kg/injection, schedule: Q01DX009 (ip), vehicle: saline 95 % of control and 98 % of control | dose: 12.5 mg/kg/injection, schedule: Q01DX009 (ip), vehicle: saline 96 % of control and 98 % of control | dose: 25.0 mg/kg/injection, schedule: Q01DX009 (ip), vehicle: saline 96 % of control | dose: 50.0 mg/kg/injection, schedule: Q01DX009 (ip), vehicle: saline 100 % of control and 91 % of control | [16] 104 % of control and 91 % of control | [17] 107 % of control and 109 % of control

CCOC(=O)C1(C(=O)OCC)CCC(C(=O)OCC)(C(=O)OCC)CC1
inactive: [13] 101 % of control | [14] 101 % of control | [15] 101 % of control

c1ccc2c(CN3CCCCC3)c[nH]c2c1
inactive: dose: 50.0 mg/kg/injection, schedule: Q01DX009 (ip), vehicle: saline with Tween-80 108 % of control | dose: 100.0 mg/kg/injection, schedule: Q01DX009 (ip), vehicle: saline with Tween-80 88 % of control | dose: 100.0 mg/kg/injection, schedule: Q04DX003 (ip), vehicle: saline with Tween-80 93 % of control | dose: 200.0 mg/kg/injection, schedule: Q04DX003 (ip), vehicle: saline with Tween-80 88 % of control

CCOC(=O)C(=NNc1cccc(Br)c1)C(=O)OCC
inactive: [9] 98 % of control | [11] 94 % of control | [12] 96 % of control
